Where a SMILES comes first, the peptide text is derived from it. Where no end group is shown, it is not given here. The star is where a group is joined. Myristoyl = CCCCCCCCCCCCCC(=O)*
Assays:
[1] = system: primary human nasal epithelial cell monolayers; assay: Permeabilization of fluorescein-conjugated dextran (FD) across nasal epithelial monolayers (cumulative release, Papp); type: cell-based
Method: (§1) To assess the potential effects of peptides of the invention on the permeabilization of therapeutic molecules, fluorescein-conjugated dextrans (FD) were used to as a model for assessing paracellular drug transport (apical to basolateral) across the epithelial monolayer.
(§2) To ensure that the integrity of the monolayer was maintained during the course of the experiment, trans-epithelial electrical resistance (TEER) was measured before and after these studies, as described below.
(§3) Mucilair™ human primary nasal and bronchial epithelial cells (Epithelix sarl, Geneva, Switzerland) were used (Huang et. al., 2013, Toxicol. in Vitro 27: 1151-1156).
(§4) Before each experiment, the culture medium was removed from each compartment and the monolayer was washed once with 200 μl of saline (0.9%) and once with warm Hanks' Balanced Salt Solution (HBSS) (37° C.). In the basolateral compartment, 600 μL of pre-warmed HBSS was placed and the cells were returned to the incubator at 37° C. for 30 minutes to equilibrate. After equilibration, the peptides of the invention were applied to the apical side of an epithelial monolayer 5 minutes prior to the addition of FD solution. Peptide 1 according to the invention (P1 of SEQ ID NO: 2) was tested in comparison with comparative peptides C1 (SEQ ID NO: 4) and C2 (SEQ ID NO: 5). FD having a molecular weight (MW) of 4 and 150 kDa were used.
(§5) All peptides were used at a final concentration of 10 μM. The vehicle was used as a control (CTRL). The FD solution was added to the apical compartment to make a final volume of 200 μl. Samples of 100 μL were taken from the basal compartment of each well every 30 minutes over a period of 150 minutes, with each volume being replaced with equal amount of fresh warm buffer to maintain sink condition. The fluorescence of FD was measured in black 96-well plates using a fluorescence plate reader (BioTek Synergy Mx plate reader, BioTek Instruments GmbH, Lucerne, Switzerland), using excitation and emission wavelengths of 485 and 520 nm, respectively. Cumulative release (ng) corresponds to the actual amount of drug released cumulatively and corresponds to the amount in the suspension medium at any time plus the amount of the drug lost during each sampling.
(§6) Trans-epithelial electrical resistance (TEER): After addition of 200 μl of culture medium to the apical compartment of the tissue cultures, resistance was measured across cultures with an EVOMX volt-ohm-meter (World Precision Instruments UK, Stevenage) in triplicate for each time point. The TEER values (Ω) were converted normalized by using the following formula: TEER (Ωcm^2)=(resistance value (Ω)−100 (Ω))×0.33 (cm^2), where 100Ω is the resistance of the membrane and 0.33 cm^2 is the total surface of the epithelium.
(§7) To assess the role of the membrane penetrating group (myristoyl) in peptides of the invention in the enhancing of the permeability of macromolecules through epithelial cell layers, the permeabilizing capacity of peptide P1 of the invention was compared to a comparative peptide C3 (SEQ ID NO: 6) corresponding to the same peptide without the myristoyl group. The permeabilizing capacity of a peptide P2 (SEQ ID NO: 3) of the invention was also assessed. Uptake experiments and TEER were conducted as described in Example 2.
(§8) To assess the duration of the permeabilization effect of the peptide of the invention, apparent permeability of peptides of various lengths was evaluated as follows. Apparent permeability refers to the amount of released FD at that time point when the sample is collected.
(§9) The tested Peptides, uptake experiments and TEER were as described in Example 2.
(§10) Apparent permeability of FD: The apparent permeability (Papp) of FD was calculated using equation 1: Papp=(dQ/dt)/A*C0 (1)

[2] = system: primary human bronchial epithelial cell monolayers; assay: Permeabilization of fluorescein-conjugated dextran (FD) across bronchial epithelial monolayers (cumulative release, Papp); type: cell-based
Method: as §1, §2, §3, §4, §5, §6, §7, §8, §9, §10

[3] = system: non-small cell lung cancer (NSCLC); conditions: compared to chemotherapies; cited from earlier work
in vitro = conditions: human, Caco-2 cells
Method: (§12) Viability of Caco-2 cells (human intestinal epithelial cell line) was determined by a cell proliferation assay using WST-1 based colorimetric assay. […] WST-1 reagent (diluted 1:10 in cell culture medium) was added as described in the instruction manual (Roche Diagnostics GMBH, Mannheim, Germany). Following 1-3 h incubation at 37° C. with the peptides or controls, absorbance at 450 nm (reference at 690 nm) was measured by a BioTek Synergy Mx plate reader. Percentage of cell viability was calculated based on the absorbance measured relative to that of cells exposed to only culture medium (control group). Sodium dodecyl sulfate (SDS) at 2% was used as a positive control for cell toxicity.

[4] = system: OCA_EGFR19del cultures (HCC827 cells); assay: Tumor size in OncoCilAir non-small cell lung cancer model; type: cell-based
Description: HCC827 cells (lung adenocarcinoma) mutated in the tyrosine kinase domain of the EGFR (epidermal growth factor receptor) were used (model OncoCilAir™, wherein Non-Small Cell Lung Cancer (NSCLC) cells were tagged with green fluorescent protein (GFP)).
Tumour morphometry was resolved by fluorescence microscopy using a Zeiss Axiocam microscope platform. Growth curves were based on various images were acquired every 2 days and the area of the green fluorescent protein positive (GFP^+) tumour was measured using the Image-Pro Plus Software (MediaCybernetics, Rockville, Md., USA). For each time point, the ratio of the total area occupied by tumours to the size of the insert was calculated and expressed as percentage of day 0, at the start of the treatment (tumor occupancy). Identical analyses settings, i.e. fixed fluorescence intensity threshold and fixed size threshold ([…]) were applied to all processed images. Percentage of tumour growth inhibition was calculated using the formula: (1−[tumour occupancy in treatment group/tumour occupancy in control group]×100).

[5] = system: Antigen-specific serum antibodies (IgG total and IgG1); assay: Intranasal immunization with Ova, antigen-specific serum antibodies by ELISA; type: in vivo, mice; conditions: i.n. 5 μg Ova with 5 μg P1 vs Ova alone; after three immunizations
Description: The effect of peptides of the invention on the efficacy of mucosal vaccines has been investigated by administering a combination of P1 with a soluble protein antigen and induced immunization has been investigated.
6 week-old female C57-BL/6 mice were purchased from Charles River Laboratories (Harlan, France) and hosted under standard conditions following the corresponding guidelines of Animal Ethic Committee. Mice (n=5) were immunized by intranasal (i.n.) administration under anesthesia on days 0, 14, and 28 with the following immunogens: saline (PBS) as a negative control, ovalbumin (Ova) (in NaCl 0.9% solution) or Ova+P1 Ova/dose (5 μg) (mixture of solution of Ova in NaCl 0.9% and solution of P1 in NaCl 0.9%) as a mixture were administered to each animal group in 12 μL (6 μL per nostril). P1 was used at a concentration of 5 μg/dose. […]
Antigen-specific serum antibodies (IgG total and IgG1) were measured by ELISA (enzyme-linked immunosorbent assay). […] Plates were washed 4 times, and HRP was quantified by adding 100 μl of TMB (3,3′,5,5′-Tetramethylbenzidine) substrate (Pierce Protein Research Products; Rockford, Ill.). Antibody titers were determined at the midpoint of the optical density-log dilution curves after subtraction of the naive background, and none-responding mice were given an arbitrary titer of 10.

[6] = system: TJ proteins occludin and ZO-1 in primary human bronchial epithelial cell monolayers; assay: Immunofluorescence of TJ proteins occludin and ZO-1, bronchial cells (confocal microscopy); type: cell-based; conditions: 50 μM peptide, 2 hours
Method: (§11) The effect of peptides of the invention on the tight junction structure of human primary nasal and bronchial epithelial cells were evaluated by confocal microscopy as follows. Mucilair™ human primary nasal and bronchial epithelial cells (Epithelix Sarl, Geneva, Switzerland) were incubated with 50 μM of peptide of the invention P1 or comparative peptides C1 and C2 for 2 hours and washed twice with phosphate buffered saline (PBS) (without Ca^2+/Mg^2+) at 37° C. Cells were fixed with methanol/acetone (50:50) for 5 minutes at […], air-dried, and washed with TBST (mixture of tris-buffered saline (TBS) and Polysorbate 20). Cell monolayers were blocked using a solution of 3% bovine serum albumin (BSA) in PBS for 60 minutes at room temperature and incubated with primary antibody against occludin (Cat: 331588, Invitrogen, Zug, Switzerland); dilution (1:200)) and ZO-1 (zonula occludens-1 protein) (Cat: 339194, Invitrogen, Zug, Switzerland); dilution (1:200)) in dilution buffer. Samples were mounted (Vectashield mounting media with DAPI (4′,6-diamidino-2-phenylindole); Vector Laboratories) and assessed within the next 24 hours by using a laser-scanning confocal microscope (CLSM; Plan-Apochromat 63/1.40 (oil) DIC objective, Zeiss Axiovert 100M-LSM 510; Carl Zeiss, Oberkochen, Germany). […]

Caco-2 cells = assay: Cell viability, WST-1 based colorimetric assay; conditions: 24 hours
Method: as §12

[7] = system: TJ proteins occludin and ZO-1 in primary human nasal epithelial cell monolayers; assay: Immunofluorescence of TJ proteins occludin and ZO-1, nasal cells (confocal microscopy); type: cell-based; conditions: 50 μM peptide, 2 hours
Method: as §11

[8] = peptide 10 μM apical, 150 minutes, vs control
[9] = P1 1 μM apical + gefitinib 1 μM apical

Compound: ARRWR (not fully specified (N-terminus)) [Peptide C3, same peptide as P1 without the myristoyl group, reference compound]
- permeability of fluorescein conjugated dextran of 4 kDa (cumulative release) [1, 8]: did not show significant difference in permeabilization ability compared to the negative control
- permeability of fluorescein conjugated dextran of 4 kDa (cumulative release) [2, 8]: did not show significant difference in permeabilization ability compared to the negative control

Compound: COc1cc2ncnc(Nc3ccc(F)c(Cl)c3)c2cc1OCCCN1CCOCC1 [gefitinib, N-(3-Chloro-4-fluorophenyl)-7-methoxy-6-(3-morpholinopropoxy) quinazolin-4-amine]
- progression free survival (PFS) [3]: 7.7-12.9 months

Compound: N-acetyl-ARR [Peptide C2, reference compound]
- permeability of fluorescein conjugated dextran of 4 kDa (cumulative release) [1, 8]: not differing from control
- permeability of fluorescein conjugated dextran of 4 kDa (cumulative release) [2, 8]: not differing from control

Compound: Myr-AKRWR (Myristoyl-AKRWR) [Peptide P2]
- permeability of fluorescein conjugated dextran of 4 kDa (cumulative release) [1, 8]: increased the permeability of the fluorescein conjugated dextran of 4 kDa in a significant manner

Compound: CCCCCCCCCCCCCC(=O)N[C@@H](CO)C(=O)N[C@H](C(=O)N[C@@H](Cc1ccc(O)cc1)C(=O)N[C@@H](CCCNC(=N)N)C(=O)N[C@@H](CCCNC(=N)N)C(=O)NCC(=O)N[C@@H](C)C(=O)N[C@@H](CCCNC(=N)N)C(=O)N[C@@H](CCCNC(=N)N)C(=O)N[C@@H](Cc1c[nH]c2ccccc12)C(=O)N[C@@H](CCCNC(=N)N)C(=O)N[C@@H](CCCCN)C(=O)N[C@@H](CC(C)C)C(=O)O)[C@@H](C)CC [Peptide C1, reference compound] (Myristoyl-SIYRRGARRWRKL-OH; C-terminus assumed)
- viability at 24 h, 50 µM (in vitro): 55.2%
- viability at 24 h, 100 µM (in vitro): 34%
- reversibility of permeabilization of FD 4 kDa (decrease in Papp overtime) ([1]; peptide 10 μM, 150 minutes): reversible
- reversibility of permeabilization of FD 4 kDa (decrease in Papp overtime) ([2]; peptide 10 μM, 150 minutes): reversible

Compound: CCCCCCCCCCCCCC(=O)N[C@@H](C)C(=O)N[C@@H](CCCNC(=N)N)C(=O)N[C@@H](CCCNC(=N)N)C(=O)N[C@@H](Cc1c[nH]c2ccccc12)C(=O)N[C@@H](CCCNC(=N)N)C(=O)O [Peptide P1, Myr-ARRWR] (Myristoyl-ARRWR-OH)
- effect of combination on tumour size vs gefitinib alone [4, 9]: significantly more efficacious than the gefitinib alone
- time at which maximal therapeutic effect was obtained [4, 9]: 3 days
- effect of combination on tumour progression vs gefitinib alone ([4]; P1 1 μM apical + gefitinib 1 μM basal): significantly potentiated the effects of the drug on tumour progression
- effect of combination on tumour progression vs gefitinib alone ([4]; P1 1 μM apical + gefitinib 5 μM basal): significantly potentiated the effects of the drug on tumour progression
- effect on tumor size ([4]; P1 alone 1 μM apical, 6 expositions over 14 days, vs DMSO): had no effect on tumor size
- viability at 24 h, 100 µM (in vitro): 76.7%
- Ova-specific serum IgG1 response [5]: significantly higher
- Ova-specific serum IgG (total) response [5]: significantly higher
- redistribution of occludin and ZO-1 [6]: causes desired TJ proteins redistribution
- permeability of FD of 150 kDa (cumulative release) [1, 8]: significantly increases the permeability
- permeability of fluorescein conjugated dextran of 4 kDa (cumulative release) [1, 8]: increased the permeability of the fluorescein conjugated dextran of 4 kDa in a significant manner
- Papp for FD of 150 kDa over time ([1]; peptide 10 μM, 150 minutes): immediate increase in the first 30 minutes and steadily decreased therefrom
- reversibility of permeabilization of FD 4 kDa (decrease in Papp overtime) ([1]; peptide 10 μM, 150 minutes): reversible
- reversibility of the permeabilization effect, FD of 150 kDa ([1]; peptide 10 μM, FIG. 6): Reversibility of the permeabilization effect was also observed
- permeability of FD of 150 kDa (cumulative release) [2, 8]: significantly increases the permeability
- permeability of fluorescein conjugated dextran of 4 kDa (cumulative release) [2, 8]: increased the permeability of the fluorescein conjugated dextran of 4 kDa in a significant manner
- Papp for FD of 150 kDa over time ([2]; peptide 10 μM, 150 minutes): immediate increase in the first 30 minutes and steadily decreased therefrom
- reversibility of permeabilization of FD 4 kDa (decrease in Papp overtime) ([2]; peptide 10 μM, 150 minutes): reversible
- reversibility of the permeabilization effect, FD of 150 kDa ([2]; peptide 10 μM, FIG. 6): Reversibility of the permeabilization effect was also observed
- toxicity on Caco-2 cells (Caco-2 cells; 50 μM): did not show any toxicity
- concentration non-toxic to cells (Caco-2 cells): at least 50 μM
- redistribution of occludin and ZO-1 [7]: causes desired TJ proteins redistribution
